From ChEMBL document CHEMBL1201862, “PubChem BioAssay data set” (2004)
Blank lines part the entries; values can stand above or below the molecule they belong to. The source made the active and inactive calls.

Legend:
[1] = test system: Candida albicans; assay: Candida growth effect without fluconazole – C. albicans CaCi-2, dry powder, counter-screen for antifungal drug resistance project, dose response (AID 488802); type: functional, organism-based
[2] = test system: NIH3T3; assay: mammalian cell viability counter-check – Alamar Blue, fluconazole, dry powder, cytotoxicity control for antifungal drug resistance project, dose response (AID 488809); type: functional, cell-based; settings: Mus musculus
[3] = target: CAAX prenyl protease 2 (Saccharomyces cerevisiae S288c, UniProt Q03530); assay: inhibition of Rce1p peptide cleavage – biochemical, plate reader, dry powder retest, dose response (AID 588851)
Sequence of CAAX prenyl protease 2 (Q03530 whole entry): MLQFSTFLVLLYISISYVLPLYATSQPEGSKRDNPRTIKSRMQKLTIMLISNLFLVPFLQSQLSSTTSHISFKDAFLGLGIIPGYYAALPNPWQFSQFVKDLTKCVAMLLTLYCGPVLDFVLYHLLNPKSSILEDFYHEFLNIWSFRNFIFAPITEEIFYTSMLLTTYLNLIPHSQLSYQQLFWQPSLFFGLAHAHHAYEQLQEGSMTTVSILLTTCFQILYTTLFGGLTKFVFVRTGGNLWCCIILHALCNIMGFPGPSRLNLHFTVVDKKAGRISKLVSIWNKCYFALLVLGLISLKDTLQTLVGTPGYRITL

[4] = target: Cytochrome P450 2D6 (Homo sapiens, UniProt P10635);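 further: CYP2D6 member of a cytochrome P450 panel assay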
Sequence of Cytochrome P450 2D6 (P10635 whole entry): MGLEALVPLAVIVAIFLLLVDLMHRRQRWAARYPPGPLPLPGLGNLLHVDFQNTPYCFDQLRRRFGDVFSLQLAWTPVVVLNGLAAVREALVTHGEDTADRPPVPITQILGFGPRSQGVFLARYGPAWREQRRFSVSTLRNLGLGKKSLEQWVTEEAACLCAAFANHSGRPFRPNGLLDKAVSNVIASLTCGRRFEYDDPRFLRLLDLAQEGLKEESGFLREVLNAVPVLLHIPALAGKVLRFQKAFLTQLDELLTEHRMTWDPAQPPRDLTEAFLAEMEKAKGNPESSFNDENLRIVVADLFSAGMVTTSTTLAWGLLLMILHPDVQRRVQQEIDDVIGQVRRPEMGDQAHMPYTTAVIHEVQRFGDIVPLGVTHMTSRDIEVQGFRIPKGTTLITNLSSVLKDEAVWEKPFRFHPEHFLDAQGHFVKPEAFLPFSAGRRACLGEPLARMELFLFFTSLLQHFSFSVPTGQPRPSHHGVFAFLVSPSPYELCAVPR

[5] = target: T1, Sentrin-specific protease 7 (Homo sapiens, UniProt Q9BQF6); assay: inhibition of human SENP7 cleavage activity – biochemical, luminescence, SAR follow-up (AID 504497); type: functional
T1 sequence (Q9BQF6 whole entry): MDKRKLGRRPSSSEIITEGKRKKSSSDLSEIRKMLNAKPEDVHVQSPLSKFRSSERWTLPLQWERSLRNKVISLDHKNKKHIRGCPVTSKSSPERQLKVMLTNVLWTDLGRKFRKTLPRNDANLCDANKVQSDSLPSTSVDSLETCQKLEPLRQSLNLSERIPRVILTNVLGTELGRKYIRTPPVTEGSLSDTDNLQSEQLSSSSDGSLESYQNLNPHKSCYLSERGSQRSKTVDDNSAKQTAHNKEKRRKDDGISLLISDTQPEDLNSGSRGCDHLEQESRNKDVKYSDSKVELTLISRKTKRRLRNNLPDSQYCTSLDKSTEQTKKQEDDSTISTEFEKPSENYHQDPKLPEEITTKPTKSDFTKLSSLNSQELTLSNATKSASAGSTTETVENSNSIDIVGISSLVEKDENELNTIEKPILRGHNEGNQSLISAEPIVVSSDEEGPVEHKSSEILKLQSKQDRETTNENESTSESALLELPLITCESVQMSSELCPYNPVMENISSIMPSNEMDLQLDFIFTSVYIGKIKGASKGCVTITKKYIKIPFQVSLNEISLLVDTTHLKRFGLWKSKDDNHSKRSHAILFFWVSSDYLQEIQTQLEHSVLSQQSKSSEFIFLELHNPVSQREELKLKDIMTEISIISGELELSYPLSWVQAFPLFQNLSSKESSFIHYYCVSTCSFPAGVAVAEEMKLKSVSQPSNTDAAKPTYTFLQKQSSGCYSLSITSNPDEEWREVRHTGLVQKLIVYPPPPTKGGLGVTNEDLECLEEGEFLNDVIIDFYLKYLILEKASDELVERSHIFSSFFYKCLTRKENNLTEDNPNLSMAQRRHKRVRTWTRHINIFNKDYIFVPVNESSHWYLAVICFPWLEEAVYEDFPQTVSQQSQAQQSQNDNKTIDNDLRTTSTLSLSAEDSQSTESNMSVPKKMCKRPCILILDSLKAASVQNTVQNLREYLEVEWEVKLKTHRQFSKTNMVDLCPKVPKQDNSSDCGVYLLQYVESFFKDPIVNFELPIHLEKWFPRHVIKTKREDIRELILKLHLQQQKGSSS

[6] = target: T1, Sentrin-specific protease 7; assay: inhibition of human SENP7 cleavage activity – biochemical, luminescence, set 2, SAR follow-up (AID 588600); type: functional
[7] = target: T2, Sentrin-specific protease 6 (Homo sapiens, UniProt Q9GZR1); assay: SAR Analysis of small molecule inhibitors of Sentrin-specific protease 6 (SENP6) using a Luminescent assay. [Related pubchem assays (depositor defined):AID2582, AID2599]; type: functional
T2 sequence (Q9GZR1 whole entry): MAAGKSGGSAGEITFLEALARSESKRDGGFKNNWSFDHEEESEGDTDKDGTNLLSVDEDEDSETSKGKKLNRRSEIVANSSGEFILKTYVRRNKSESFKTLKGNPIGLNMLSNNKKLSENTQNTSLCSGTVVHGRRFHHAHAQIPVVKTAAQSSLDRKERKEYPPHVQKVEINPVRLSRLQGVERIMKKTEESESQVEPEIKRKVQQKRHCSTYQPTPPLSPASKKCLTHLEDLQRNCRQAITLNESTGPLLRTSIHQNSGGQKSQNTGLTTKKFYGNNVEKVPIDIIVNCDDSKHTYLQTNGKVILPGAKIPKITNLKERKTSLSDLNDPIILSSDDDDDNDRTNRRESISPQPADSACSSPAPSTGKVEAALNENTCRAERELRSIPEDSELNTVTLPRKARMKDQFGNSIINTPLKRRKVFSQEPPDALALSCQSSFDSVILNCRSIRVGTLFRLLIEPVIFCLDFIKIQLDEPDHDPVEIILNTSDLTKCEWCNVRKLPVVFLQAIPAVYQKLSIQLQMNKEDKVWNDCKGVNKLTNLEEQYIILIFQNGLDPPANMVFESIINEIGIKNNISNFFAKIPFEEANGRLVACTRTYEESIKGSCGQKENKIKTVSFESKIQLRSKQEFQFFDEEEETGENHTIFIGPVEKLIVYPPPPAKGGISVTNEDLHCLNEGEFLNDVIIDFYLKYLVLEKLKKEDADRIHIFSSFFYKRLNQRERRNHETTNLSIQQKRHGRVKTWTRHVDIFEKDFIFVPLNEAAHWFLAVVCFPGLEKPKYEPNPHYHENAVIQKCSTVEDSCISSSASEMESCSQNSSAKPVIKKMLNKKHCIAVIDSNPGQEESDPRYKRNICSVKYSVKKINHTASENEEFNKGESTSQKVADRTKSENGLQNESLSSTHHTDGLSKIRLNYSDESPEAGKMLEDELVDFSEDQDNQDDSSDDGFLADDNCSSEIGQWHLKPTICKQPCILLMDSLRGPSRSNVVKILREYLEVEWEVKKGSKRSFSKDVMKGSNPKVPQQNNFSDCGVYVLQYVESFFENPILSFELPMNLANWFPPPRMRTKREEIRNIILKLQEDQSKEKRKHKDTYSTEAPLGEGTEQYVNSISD

[8] = target: T3, Sentrin-specific protease 8 (Homo sapiens, UniProt Q96LD8); assay: inhibition of sentrin protease 8 – biochemical, luminescence, set 2, SAR follow-up (AID 588601); type: functional
T3 sequence (Q96LD8 whole entry): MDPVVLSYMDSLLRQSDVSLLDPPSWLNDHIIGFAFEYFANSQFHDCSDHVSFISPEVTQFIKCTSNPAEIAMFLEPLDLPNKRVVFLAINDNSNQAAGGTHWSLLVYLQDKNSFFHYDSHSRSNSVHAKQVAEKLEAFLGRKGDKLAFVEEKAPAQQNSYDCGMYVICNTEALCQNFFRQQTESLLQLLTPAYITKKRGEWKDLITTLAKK

[9] = target: T4, Caspase-3 (Homo sapiens, UniProt P42574); assay: inhibition of recombinant caspase-3 activity – biochemical, luminescence, set 2, selectivity assay for SENP protease inhibitor project, SAR follow-up (AID 588599); type: functional
T4 sequence (P42574 whole entry): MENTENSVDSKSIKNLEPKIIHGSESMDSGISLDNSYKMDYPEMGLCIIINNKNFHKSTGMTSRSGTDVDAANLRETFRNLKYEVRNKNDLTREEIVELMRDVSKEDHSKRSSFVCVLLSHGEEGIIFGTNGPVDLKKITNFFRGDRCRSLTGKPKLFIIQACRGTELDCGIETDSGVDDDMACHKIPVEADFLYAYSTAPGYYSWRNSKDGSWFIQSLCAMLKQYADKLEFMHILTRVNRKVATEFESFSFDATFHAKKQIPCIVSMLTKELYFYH

[10] = target: T3, Sentrin-specific protease 8; assay: inhibition of human SENP8 cleavage activity – biochemical, luminescence, SAR follow-up (AID 504501); type: functional
[11] = target: T2, Sentrin-specific protease 6; assay: inhibition of human SENP6 catalytic domain – biochemical, luminescence, set 2, SAR follow-up (AID 588598); type: functional
[12] = target: T5, Protein skinhead-1 (Caenorhabditis elegans, UniProt P34707); type: functional
T5 sequence (P34707 whole entry): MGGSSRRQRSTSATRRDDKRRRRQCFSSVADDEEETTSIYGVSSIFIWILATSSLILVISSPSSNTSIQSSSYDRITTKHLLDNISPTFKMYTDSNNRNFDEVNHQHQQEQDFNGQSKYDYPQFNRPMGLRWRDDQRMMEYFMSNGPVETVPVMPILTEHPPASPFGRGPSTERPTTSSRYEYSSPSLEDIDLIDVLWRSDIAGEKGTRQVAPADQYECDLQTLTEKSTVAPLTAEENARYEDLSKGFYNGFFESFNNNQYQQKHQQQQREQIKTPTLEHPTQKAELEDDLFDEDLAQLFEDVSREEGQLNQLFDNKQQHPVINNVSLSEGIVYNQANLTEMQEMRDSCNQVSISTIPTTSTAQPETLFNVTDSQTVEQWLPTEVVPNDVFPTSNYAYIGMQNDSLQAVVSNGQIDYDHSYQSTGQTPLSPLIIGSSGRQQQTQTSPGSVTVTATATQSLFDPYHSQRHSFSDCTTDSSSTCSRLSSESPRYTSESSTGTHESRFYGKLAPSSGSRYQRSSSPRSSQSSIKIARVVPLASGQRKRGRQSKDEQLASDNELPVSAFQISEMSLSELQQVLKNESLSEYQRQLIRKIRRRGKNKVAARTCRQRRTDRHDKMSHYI

[13] = target: T4, Caspase-3; assay: SAR Analysis of small molecule inhibitors of Sentrin-specific proteases (SENPs) using a Caspase-3 Selectivity assay. [Related pubchem assays (depositor defined):AID2540, AID2599, AID434973, AID489001]; type: functional
[14] = test system: CHO-K1; assay: (§1) Counterscreen for antagonists of the orexin 1 receptor (OX1R; HCRTR1): Homogeneous time resolved fluorescence (HTRF)-based cell-based dose response assay to identify antagonists of the parental CHO-K1 cell line. [Related pubchem assays (depositor defined):AID434989, AID435008, AID463079, AID485270, AID492963, AID492964, AID492965, AID493232, AID504699, AID504701]; type: functional; settings: Cricetulus griseus
[15] = as §1, with “Fluorescence-based” for “Homogeneous time resolved fluorescence (HTRF)-based”, “cell-based high throughput” for “cell-based”, “CHO” for “CHO-K1”; type: functional
[16] = target: T6, Orexin/Hypocretin receptor type 1 (Homo sapiens, UniProt O43613); assay: (§2) Fluorescence-based cell-based high throughput dose response assay for antagonists of the orexin 1 receptor (OX1R; HCRTR1). [Related pubchem assays (depositor defined):AID434989, AID435008, AID463079, AID485270, AID492963, AID492964, AID492965, AID493232, AID504717, AID504718]; type: functional
T6 sequence (O43613 whole entry): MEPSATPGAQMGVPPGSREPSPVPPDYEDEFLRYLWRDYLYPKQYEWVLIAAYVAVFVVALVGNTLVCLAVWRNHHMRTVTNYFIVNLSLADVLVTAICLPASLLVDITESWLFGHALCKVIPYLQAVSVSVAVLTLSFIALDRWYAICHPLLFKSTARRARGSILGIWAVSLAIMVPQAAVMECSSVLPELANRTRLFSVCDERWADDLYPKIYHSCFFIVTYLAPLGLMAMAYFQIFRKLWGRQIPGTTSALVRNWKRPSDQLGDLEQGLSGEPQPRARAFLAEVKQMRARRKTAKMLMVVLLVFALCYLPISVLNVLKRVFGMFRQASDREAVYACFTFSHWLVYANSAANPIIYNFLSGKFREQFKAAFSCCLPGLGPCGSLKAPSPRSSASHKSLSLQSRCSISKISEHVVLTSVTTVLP

[17] = target: T7, Orexin receptor type 2 (Homo sapiens, UniProt O43614); assay: Counterscreen assay for antagonists of the orexin 1 receptor (OX1R; HCRTR1): Fluorescence-based cell-based dose response assay for antagonists of the orexin 2 receptor (OX2R; HCRTR2), run by assay provider.; type: functional
T7 sequence (O43614 whole entry): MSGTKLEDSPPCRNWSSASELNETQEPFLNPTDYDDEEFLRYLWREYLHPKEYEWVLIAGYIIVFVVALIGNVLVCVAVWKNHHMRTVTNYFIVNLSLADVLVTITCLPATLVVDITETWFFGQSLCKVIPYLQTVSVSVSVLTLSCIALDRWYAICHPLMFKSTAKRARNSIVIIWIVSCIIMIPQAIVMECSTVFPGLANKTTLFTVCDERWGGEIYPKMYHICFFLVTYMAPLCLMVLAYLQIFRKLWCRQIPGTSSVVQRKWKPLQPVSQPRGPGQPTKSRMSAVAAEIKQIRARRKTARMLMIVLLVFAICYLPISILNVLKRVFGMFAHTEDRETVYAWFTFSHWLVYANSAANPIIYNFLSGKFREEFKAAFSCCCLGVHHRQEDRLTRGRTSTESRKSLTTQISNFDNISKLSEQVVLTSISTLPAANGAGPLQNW

[18] = target: T6, Orexin/Hypocretin receptor type 1; assay: as §2, with “Homogeneous Time Resolved Fluorescence (HTRF)-based” for “Fluorescence-based”; type: functional
[19] = target: T7, Orexin receptor type 2; assay: Counterscreen assay for antagonists of the orexin 1 receptor (OX1R; HCRTR1): Homogeneous Time Resolved Fluorescence (HTRF)-based cell-based dose response assay for antagonists of the orexin 2 receptor (OX2R; HCRTR2), run by assay provider.; type: functional

SMILES: CC1CCN(C(=O)Cn2c3ccccc3c3nc4n(c(=O)c32)CCCS4)CC1
AC50 [1]: 122 µM (active)
AC50 [2]: > 260 µM (inactive)

AC50 [3]: 11 µM (active)
AC50 [4]: 11.2 µM (inconclusive)
SMILES: Cc1ccc(NC(=O)CCc2ccc(S(=O)(=O)NC3CCCCC3)cc2)cc1

IC50 [5]: 5.3 µM (active)
IC50 [6]: 8.26 µM (active)
IC50 [7]: 21 µM (active)
IC50 [9]: 9.23 µM (active)
IC50 [11]: 8.23 µM (active)
IC50 [12]: 49 µM (active)
IC50 [13]: 6.2 µM (active)
SMILES: C(=C\c1nc(-c2cccnc2)no1)/c1ccccc1
IC50 [8]: 9.69 µM (active)
IC50 [10]: 23 µM (active)

SMILES: Cc1nn(C)c(C)c1/N=C/c1c(O)ccc2ccccc12
IC50 [14]: > 66.2 µM (inactive)
IC50 [15]: > 49.8 µM (inactive)
IC50 [16]: 31.2 µM (inactive)
IC50 [17]: > 88.8 µM (inactive)
IC50 [18]: 3.76 µM (active)
IC50 [19]: > 50 µM (inactive)
